Assay results as given in patent publication EP0048159A2, “Novel carboxyalkyl peptides and thioethers and ethers of peptides as antihypertensive agents” (UNIVERSITY OF MIAMI, priority 1980, dated 1982).

Legend:
[1] = target: T1, Human plasma ACE (Homo sapiens, UniProt P12821); test: Inhibitory potency in vitro: ACE assay with [3H]hippuryl-His-Leu substrate; assay type: biochemical; details: hippuryl-His-Leu 1 x 10^-4 M, 0.05 M Hepes buffer pH 8.0, 15 minutes at 37°C, read-out: I50
T1 construct: Human plasma ACE was assayed in 0.05 M Hepes buffer, pH 8.0; from tissue; host or cells: human plasma
Procedure: The inhibitory potency of several compounds in vitro was measured in the following assay. Human plasma ACE was assayed in 0.05 M Hepes buffer, pH 8.0 containing 0.1 M NaCl and 0.75 M Na2SO4. The substrate employed was hippuryl-His-Leu at a final concentration-of 1 x 10^-4 M, (Km = 2 x 10^-4 M), together with about 130,000 cpm/50 µl of [^3Hlhippuryl-His-Leu (25 Ci/mmole). Enzyme was diluted in the above buffer such that 40 ul of buffered enzyme was capable of hydrolyzing 13% of substrate in a 15 minute incubation at 37°C. To initiate the assay, 40 µl of enzyme and 10 µl of buffer or inhibitor dissolved in buffer were preincubated for two minutes at 37°C. Substrate, 50 µl, was then added to initiate reaction and the solution was incubated for 15 minutes at 37°C. To terminate the reaction, 1 ml of 0:1 M HC1 was added, following which 1 ml of ethyl acetate was added. The mixture was
An aliquot, 500 ul. of the ethyl acetate layer was transferred to a liquid scintillation vial containing 10 ml of Riafluor, trademark New England Nuclear Corporation, Boston, Massachusetts. For determination of I50 values, enzyme activity in the presence of inhibitor at a series of different concentrations was compared to activity in the absence of inhibitor. A plot of log inhibitor concentration versus percent inhibition yielded the I50 value; the concentration of inhibitor required to reduce enzymic activity by 50%.

[2] = tested on: Rats; test: Intravenous effectiveness: blood pressure response to angiotensin I in anesthetized rats; assay type: in vivo; details: 20 µmole/kg intravenously
Procedure: Rats (190-290 g body weight) were fasted overnight and then anesthetized with intraperitoneal pentobarbital, 50-60 mg/kg. Tracheostomy was performed and the animals were ventilated mechanically. A cannula was inserted into a femoral vein for injection of angiotensin I, and a second cannula was inserted into a common carotid artery for direct measurement of arterial blood pressure. Heparin, 1,000 units, was injected via the femoral vein to prevent coagulation. Blood pressure was measured with a pressure transducer connected to a polygraph. The rats were injected with […] of angiotensin I in 20 pl of 0.9 g % NaCl; an amount of angiotensin I sufficient to raise mean arterial blood pressure by approximately 40 mm Hg. After the responsiveness of a given rat to angiotensin I was established, the named compound at 20 µmole/kg (drug dissolved in 0.15 ml of H20 plus 10 µl of 1 N NaHC03), was given intravenously. At timed intervals, the effects of 400 ng/kg of angiotensin I on mean arterial blood pressure were tested.

[3] = Loss of activity of aqueous solution on standing under ambient conditions; assay type: physicochemical; details: fresh aqueous solution, 1 mg per ml, pH of about 8, standing for as little as 30 minutes
Source text: In vitro study of the mechanism by which SQ14225 and its analogs act to inhibit ACE has been somewhat hampered by the instability of these molecules under ambient conditions.

T1 sequence (P12821 30-1232 limits assumed): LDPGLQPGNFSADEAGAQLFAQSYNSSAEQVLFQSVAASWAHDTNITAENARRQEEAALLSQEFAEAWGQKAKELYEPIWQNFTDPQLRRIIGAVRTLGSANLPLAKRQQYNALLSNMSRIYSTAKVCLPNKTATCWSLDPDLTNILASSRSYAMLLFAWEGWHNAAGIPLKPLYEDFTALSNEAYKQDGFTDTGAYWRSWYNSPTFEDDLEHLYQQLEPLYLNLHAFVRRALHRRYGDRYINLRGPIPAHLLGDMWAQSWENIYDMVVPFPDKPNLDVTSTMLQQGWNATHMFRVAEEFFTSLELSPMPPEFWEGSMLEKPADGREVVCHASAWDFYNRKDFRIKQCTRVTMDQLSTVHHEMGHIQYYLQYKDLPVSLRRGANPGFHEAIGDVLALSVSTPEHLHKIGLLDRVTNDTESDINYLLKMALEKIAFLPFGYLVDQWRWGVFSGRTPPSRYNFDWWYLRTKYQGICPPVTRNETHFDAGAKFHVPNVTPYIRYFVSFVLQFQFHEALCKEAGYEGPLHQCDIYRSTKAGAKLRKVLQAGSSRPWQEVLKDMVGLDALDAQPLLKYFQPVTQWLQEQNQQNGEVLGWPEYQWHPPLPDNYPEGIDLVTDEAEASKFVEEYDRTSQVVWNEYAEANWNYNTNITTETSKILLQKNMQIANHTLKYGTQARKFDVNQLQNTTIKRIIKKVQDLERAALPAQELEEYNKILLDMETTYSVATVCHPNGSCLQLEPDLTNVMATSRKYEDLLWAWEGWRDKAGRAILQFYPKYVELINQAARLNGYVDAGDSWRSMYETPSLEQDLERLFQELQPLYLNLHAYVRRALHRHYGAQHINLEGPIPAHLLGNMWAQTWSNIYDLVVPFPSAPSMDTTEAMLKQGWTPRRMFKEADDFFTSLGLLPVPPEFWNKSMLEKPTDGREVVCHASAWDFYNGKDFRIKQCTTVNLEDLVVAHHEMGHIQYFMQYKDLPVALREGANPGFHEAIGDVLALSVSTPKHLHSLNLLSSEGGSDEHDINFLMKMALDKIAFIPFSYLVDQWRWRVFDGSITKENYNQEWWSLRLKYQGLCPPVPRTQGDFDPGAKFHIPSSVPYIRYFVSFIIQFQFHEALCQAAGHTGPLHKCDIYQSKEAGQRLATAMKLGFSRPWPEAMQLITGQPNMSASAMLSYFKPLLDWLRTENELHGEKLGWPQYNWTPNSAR

Row | IC50 [1] [nM] | Compound | other results
1 | 60 | CCOC(=O)C(C)N[C@@H](C)C(=O)N1CCC[C@H]1C(=O)O (stereo partly drawn) [N-(1-ethoxycarbonylethyl)-L-alanyl-L-proline] | –
2 | 400 | CC(SC(C)C(=O)N1CCC[C@H]1C(=O)O)C(=O)O (stereo partly drawn) [N-[2-(1-carboxyethylthio)-propanoyl]-L-proline] | –
3 | 1500 | CC(SC[C@@H](C)C(=O)N1CCC[C@H]1C(=O)O)C(=O)O (stereo partly drawn) [N-[3-(1-carboxyethylthio)-2-D-methylpropanoyl]-L-proline] | Blood Pressure Reponse to 400 ng/kg of Angiotensin I (% of Control) ([2]; 8 minutes after IV administration): 62.5 % of Control; Blood Pressure Reponse to 400 ng/kg of Angiotensin I (% of Control) ([2]; 15 minutes after IV administration): 37.5 % of Control; Blood Pressure Reponse to 400 ng/kg of Angiotensin I (% of Control) ([2]; 21 minutes after IV administration): 37.5 % of Control; Blood Pressure Reponse to 400 ng/kg of Angiotensin I (% of Control) ([2]; +2 minutes after IV administration): 67.5 % of Control

Continued, compound first:

Row | Compound | IC50 [1] [nM] | other results
4 | CC(N[C@@H](C)C(=O)N1CCC[C@H]1C(=O)O)C(=O)O (stereo partly drawn) [N-(1-carboxyethyl)-L-alanyl-L-proline, reference compound] | 8 | –
5 | CC(O)CC(SC(C)C(=O)N1CCC[C@H]1C(=O)O)C(=O)O (stereo partly drawn) [N-[2-(1-carboxy-3-hydroxy-butylthio)-propanoyl]-L-proline] | 30 | –
6 | CC1CC(SC(C)C(=O)N2CCC[C@H]2C(=O)O)C(=O)O1 (stereo partly drawn) [N-[2-(tetrahydro-5-methyl-2-furanone-3-thio)-propanoyl]-L-proline] | 130 | –
7 | C[C@H](CS)C(=O)N1CCC[C@H]1C(=O)O [SQ14225] | – | activity of aqueous solution upon standing [3]: substantially less active
